Data taken from publication PMC6009886, “Methanethiosulfonate derivatives as ligands of the STAT3-SH2 domain” (Journal of Enzyme Inhibition and Medicinal Chemistry, 2017).
Counter-ions that a name gives are not always drawn. Marks after values point to notes of the source that are not given here.

What was measured:
[1] = test system: HCT-116 cell line; experiment: MTT assay, cytotoxicity on HCT-116 cell line; type: cell-based, human; conditions: for antiproliferative / cytotoxic activity on HCT-116 cell line (in words): 48 h treatment; for IC50: Homo sapiens, HCT-116, 48 h treatment, NA: not active up to 200 μM, read-out: HCT-116 IC50 (μM) ± SD
Method: The colorectal cancer HCT116 cells were cultured in McCoy’s media supplemented with penicillin (10,000 U/ml), streptomycin (10 mg/ml), nonessential amino acid, and 10% fetal calf serum (FCS). Cells were then seeded in 48 well plates and, after 24 h, they were incubated with different concentration of newly synthesized compounds dissolved in DMSO.
After 48 h of treatment, medium was removed from each well, and cells were incubated with fresh medium, containing 10% (v/v) of MTT (3-(4,5-dimethyl-2-thiazolyl)-2,5-diphenyl-2H-tetrazolium bromide) reagent. MTT, by interacting with vital cells mitochondria, is converted to formazan, with the development of visible purple crystals. After dissolving these crystals with isopropanol-HCl, the quantification of the conversion of MTT to formazan is determined through spectrophotometer analysis (595 nM), as previously described.

[2] = test system: T1, Grb2 (Growth factor receptor-bound protein 2); experiment: AlphaScreen-based assay, selectivity versus Grb2; type: binding; conditions: a = mean of two experiments
T1 construct: First, 75 nM of each SH2-containing protein was incubated with the test compound for 15 min
Method: (§1) STAT3 inhibitory activity of the described compounds was tested by the AlphaScreen-based assay to evaluate the potential inhibition of the interaction between STAT3-SH2 domain and pTyr-containing peptides according to the previously reported procedure. For the most interesting compounds, selectivity tests versus STAT1 and Grb2 (Growth factor receptor-bound protein 2) were performed. AlphaScreen is a bead-based nonradioactive assay system for detecting biomolecular interactions in a microtiter plate format. Binding of biological partners brings donor and acceptor beads into close proximity and as result, a luminescent signal between 520 and 620 nm is produced. The AlphaScreen-based assays were typically performed in a final reaction volume of 25 μl of the assay buffer containing 10 mM HEPES–NaOH (pH 7.4), 50 mM NaCl, 1 mM EDTA (pH 8.0), 0.1% NP-40, and 10 ng/μl BSA in a 96-well microtiter plate at 25 °C. Phospho-Tyr (pTyr) peptide probes used in this study were 5-carboxyfluorescein (FITC)-GpYLPQTV for STAT3, FITC-GpYDKPHVL for STAT1, and FITC-PSpYVNVQN for Grb2. First, 75 nM of each SH2-containing protein was incubated with the test compound for 15 min. Each protein sample was then incubated for 90 min with 50 nM of its corresponding FITC-pTyr peptide, and mixed with streptavidin-coated donor beads and anti-FITC acceptor beads simultaneously before detection at 570 nm using EnVisonXcite (Perkin Elmer, Waltham, MA).

[3] = target: T2, STAT3-SH2 domain (Homo sapiens, UniProt P40763); experiment: AlphaScreen-based assay, STAT3-SH2 domain / pTyr peptide binding; conditions: for inhibition at 30 µM: a = mean of two experiments; for IC50: read-out: STAT3 IC50 (μM) ± SD
T2 construct: First, 75 nM of each SH2-containing protein was incubated with the test compound for 15 min
T2 sequence (P40763 whole entry, the tested form may be a part): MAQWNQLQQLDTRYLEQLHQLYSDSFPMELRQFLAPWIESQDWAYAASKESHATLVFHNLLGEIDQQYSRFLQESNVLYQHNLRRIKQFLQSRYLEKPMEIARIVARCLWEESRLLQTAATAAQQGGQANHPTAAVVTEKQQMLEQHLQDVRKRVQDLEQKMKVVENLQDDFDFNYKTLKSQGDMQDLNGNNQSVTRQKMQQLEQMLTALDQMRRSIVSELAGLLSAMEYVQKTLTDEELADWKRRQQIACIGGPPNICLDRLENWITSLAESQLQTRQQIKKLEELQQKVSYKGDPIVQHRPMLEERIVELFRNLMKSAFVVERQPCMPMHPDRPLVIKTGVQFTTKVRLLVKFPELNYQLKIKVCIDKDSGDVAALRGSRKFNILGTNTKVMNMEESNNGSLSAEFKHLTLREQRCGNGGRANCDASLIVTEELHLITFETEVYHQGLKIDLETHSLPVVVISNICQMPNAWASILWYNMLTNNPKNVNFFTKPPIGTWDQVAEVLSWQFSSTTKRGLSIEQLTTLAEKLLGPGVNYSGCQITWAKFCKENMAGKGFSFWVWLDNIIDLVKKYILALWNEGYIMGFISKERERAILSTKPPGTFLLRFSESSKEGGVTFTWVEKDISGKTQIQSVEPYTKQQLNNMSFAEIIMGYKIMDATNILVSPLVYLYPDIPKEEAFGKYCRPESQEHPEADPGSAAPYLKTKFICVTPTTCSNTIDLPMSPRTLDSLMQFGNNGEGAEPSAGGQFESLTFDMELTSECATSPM

[4] = target: T3, STAT1 (Homo sapiens, UniProt P42224); experiment: AlphaScreen-based assay, selectivity versus STAT1; type: binding; conditions: for IC50: read-out: STAT1 IC50 (μM) ± SD
T3 construct: First, 75 nM of each SH2-containing protein was incubated with the test compound for 15 min
T3 sequence (P42224 1-750): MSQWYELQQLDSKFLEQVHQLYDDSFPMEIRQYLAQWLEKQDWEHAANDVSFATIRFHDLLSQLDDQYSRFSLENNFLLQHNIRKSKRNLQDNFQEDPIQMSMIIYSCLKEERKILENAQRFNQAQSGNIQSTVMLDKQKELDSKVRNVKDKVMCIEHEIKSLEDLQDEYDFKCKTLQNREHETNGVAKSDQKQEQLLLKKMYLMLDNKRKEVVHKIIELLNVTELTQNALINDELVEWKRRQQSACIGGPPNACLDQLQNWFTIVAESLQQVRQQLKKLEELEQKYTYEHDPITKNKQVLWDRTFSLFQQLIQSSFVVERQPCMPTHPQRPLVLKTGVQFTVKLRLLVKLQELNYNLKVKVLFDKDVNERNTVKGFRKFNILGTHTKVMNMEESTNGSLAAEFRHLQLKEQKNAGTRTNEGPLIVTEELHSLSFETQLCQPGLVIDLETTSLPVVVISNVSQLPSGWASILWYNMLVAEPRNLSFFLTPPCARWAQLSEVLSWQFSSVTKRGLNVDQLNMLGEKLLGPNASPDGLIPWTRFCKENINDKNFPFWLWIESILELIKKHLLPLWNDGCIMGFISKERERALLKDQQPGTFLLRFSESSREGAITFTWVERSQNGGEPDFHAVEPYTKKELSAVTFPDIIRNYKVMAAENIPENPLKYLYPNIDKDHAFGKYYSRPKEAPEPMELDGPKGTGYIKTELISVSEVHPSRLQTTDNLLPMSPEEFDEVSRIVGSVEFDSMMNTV
Method: as §1

[5] = test system: STAT3 homodimers; design: method as in PMID 17463090; conditions: read-out: IC50, blocked the formation of STAT3 homodimers; cited from earlier work

With `CS(=O)(=O)SCCOC(=O)Cc1ccccc1Nc1c(Cl)cccc1Cl` [Compound 5, 2-((methylsulfonyl)thio)ethyl 2-(2-((2,6-dichlorophenyl)amino)phenyl)acetate] the “antiproliferative / cytotoxic activity on HCT-116 cell line (in words)” value (“antiproliferative / cytotoxic activity” below) [1] was “inefficacious at concentration up to 100–200 μM”, the “Grb2 % Inhibition 3 μM” value [2] was 77.8^a % and the inhibition at 3 µM [3] was 110 ± 2.2%. For the same compound, the inhibition at 30 µM [3] was 102%, the IC50 [3] was 0.5 ± 0.2 µM and the inhibition at 3 µM [4] was 35.4 ± 2.1%. For the same compound, the IC50 [4] was over 3 µM.

With `CC(=O)Oc1ccccc1C(=O)OCCSS(C)(=O)=O` [Compound 4, 2-Acetoxybenzoic acid 2-methanesulfonylsulfanyl-ethyl ester] the “antiproliferative / cytotoxic activity” value [1] was “moderate antiproliferative activity”, the IC50 [1] was 87.9 ± 11.4 µM and the “Grb2 % Inhibition 3 μM” value [2] was 15.9^a %. It also gave an inhibition at 3 µM [3] of 93.5 ± 2.6%, an inhibition at 30 µM [3] of 100 ± 0.1% and an IC50 [3] of 1.4 ± 0.1 µM. It also gave an inhibition at 3 µM [4] of 44.2 ± 0.8%, an inhibition at 30 µM [4] of 99.8 ± 0.4% and an IC50 [4] of 3.6 µM.

With `CS(=O)(=O)SCCN` [Compound 10, S-(2-aminoethyl) methanesulfonothioate, reference compound] the “Grb2 % Inhibition 3 μM” value [2] was 12.3^a %, the IC50 [3] was over 3 µM and the IC50 [4] was over 3 µM.

In the case of `CS(=O)(=O)SCCO` [Compound 9, S-(2-hydroxyethyl) methanesulfonothioate, reference compound], the IC50 [3] is reported as over 30 µM.

With `CS(=O)(=O)CSC(=O)c1ccc(N)cc1O` [Compound 8, S-((methylsulfonyl)methyl) 4-amino-2-hydroxybenzothioate] the “antiproliferative / cytotoxic activity” value [1] was “good cytotoxic activity”, the IC50 [1] was 26.3 ± 11.6 µM and the inhibition at 30 µM [3] was 41.8 ± 0.9%. The “inhibition / binding of STAT3-SH2 domain (in words)” value ([3]; highest concentration tested 30 μM) was “moderately inhibited” and the IC50 [3] was over 30 µM.

In the case of `CCCC(CCC)C(=O)OCCSS(C)(=O)=O` [Compound 1, 2-((Methylsulfonyl)thio)ethyl 2-propylpentanoate], the “antiproliferative / cytotoxic activity” value [1] is reported as “moderate antiproliferative activity”, the IC50 [1] is reported as 136 ± 2.2 µM and the “Grb2 % Inhibition 3 μM” value [2] is reported as 76.0^a %. The inhibition at 3 µM [3] was 101 ± 2.2%, the inhibition at 30 µM [3] was 102% and the IC50 [3] was 0.7 ± 0.1 µM. It also gave an inhibition at 3 µM [4] of 44.9 ± 10.5% and an IC50 [4] of over 3 µM.

`Cc1ccc(S(=O)(=O)SCC(=O)Nc2ccc(C(=O)O)c(O)c2)cc1` [Compound 6, 2-Hydroxy-4-(2-(tosylthio)acetamido)benzoic acid] showed an IC50 [1] of over 200 µM, an inhibition at 3 µM [3] of 46 ± 0.8% and an inhibition at 30 µM [3] of 58.4 ± 1.1%. The IC50 [3] was 4.9 ± 0.4 µM, the inhibition at 3 µM [4] was 18 ± 0.2% and the inhibition at 30 µM [4] was 39.6 ± 0.8%. It also gave an IC50 [4] of over 30 µM.

In the case of `Cc1ccc(S(=O)(=O)OCC(=O)Nc2ccc(C(=O)O)c(O)c2)cc1` [Compound S3I-301, reference compound], the IC50 [1] is given as 39.5 ± 7.7 µM, the inhibition at 30 µM [3] is given as 7.2 ± 1.7% and the IC50 [5] is given as 86 µM.

`CC1=C(CC(=O)O)c2cc(F)ccc2/C1=C\c1ccc([S+](C)[O-])cc1` (centres unmarked) [Sulindac, sulindac, reference compound] showed an inhibition at 30 µM [3] of 4.2 ± 3.2%, an IC50 [3] of over 30 µM and an inhibition at 30 µM [4] of 4.9 ± 2%. The IC50 [4] was over 30 µM.

With `CC1=C(CC(=O)OCCSS(C)(=O)=O)c2cc(F)ccc2/C1=C\c1ccc([S+](C)[O-])cc1` (centres unmarked) [Compound 3, (Z)-5-fluoro-2-methyl-1-[[4-(methylsulfinyl)phenyl]methylene]-1H-indene-3-acetic acid 2-methanesulfonylsulfanylethyl ester] the “antiproliferative / cytotoxic activity” value [1] was “moderate antiproliferative activity”, the IC50 [1] was 104 ± 10.9 µM and the “Grb2 % Inhibition 3 μM” value [2] was 74.6^a %. It also gave an inhibition at 3 µM [3] of 105 ± 8.2%, an inhibition at 30 µM [3] of 102% and an IC50 [3] of 0.5 ± 0.1 µM. For the same compound, the inhibition at 3 µM [4] was 46.7 ± 1.1% and the IC50 [4] was over 3 µM.

With `O=C(O)Cc1ccccc1Nc1c(Cl)cccc1Cl` [Diclofenac sodium salt, reference compound] the inhibition at 30 µM [3] was 4.5 ± 2.4%, the IC50 [3] was over 30 µM and the inhibition at 30 µM [4] was 6.5 ± 2.1%. It also gave an IC50 [4] of over 30 µM.

In the case of `CCCC(CCC)C(=O)O` [VA, valproic acid, reference compound], the inhibition at 30 µM [3] is reported as 0.2 ± 3.2%, the IC50 [3] is reported as over 30 µM and the inhibition at 30 µM [4] is reported as 2.7 ± 3%. For the same compound, the IC50 [4] was over 30 µM.

`CC(=O)Oc1ccccc1C(=O)O` [ASA, acetyl salicylic acid, reference compound] gave an inhibition at 30 µM [3] of 3.8 ± 1.9%, an IC50 [3] of over 30 µM and an inhibition at 30 µM [4] of 6.3 ± 1.7%. For the same compound, the IC50 [4] was over 30 µM.

For `CCCC(CCC)C(=O)NCCSS(C)(=O)=O` [Compound 2, S-(2-(2-propylpentanamido)ethyl) methanesulfonothioate], the “antiproliferative / cytotoxic activity” value [1] was “inefficacious at concentration up to 100–200 μM”, the “Grb2 % Inhibition 3 μM” value [2] was −23.3^a % and the inhibition at 3 µM [3] was 67.2 ± 11%. For the same compound, the inhibition at 30 µM [3] was 106%, the IC50 [3] was 1.4 ± 0.1 µM and the inhibition at 3 µM [4] was 1.9 ± 2.2%. For the same compound, the IC50 [4] was over 3 µM.
